Assay results reported in the NIST ThermoML archive (doi:10.1016/j.jct.2013.07.003).

Assays:
[1] = refractive index (Na D-line) (dimensionless); xn = mol fraction of the nth substance listed; conditions: 101 kPa, Liquid, Standard Abbe refractometry
[2] = relative permittivity at various frequencies (dimensionless); xn = mol fraction of the nth substance listed; conditions: 101 kPa, Liquid, Frequency=0.1 MHz, Coaxial cylinder capacitor

CC(O)CCO (stereo not given) [1,3-butanediol] + CCCCCCCCO
Conditions	refractive index, 298.2 K	refractive index, 303.2 K	refractive index, 308.2 K	refractive index, 313.2 K	refractive index, 318.2 K	relative permittivity, 298.2 K	relative permittivity, 303.2 K	relative permittivity, 308.2 K	relative permittivity, 313.2 K	relative permittivity, 318.2 K
[1], x1 = 0.105	1.4279	1.4257	1.4233	1.4209	1.4189	–	–	–	–	–
[1], x1 = 0.2	1.4283	1.4261	1.4238	1.4215	1.4195	–	–	–	–	–
[1], x1 = 0.301	1.4288	1.4268	1.4245	1.4223	1.4204	–	–	–	–	–
[1], x1 = 0.401	1.4295	1.4275	1.4253	1.4232	1.4213	–	–	–	–	–
[1], x1 = 0.45	1.43	1.4281	1.4259	1.4239	1.4221	–	–	–	–	–
[1], x1 = 0.501	1.4305	1.4286	1.4265	1.4245	1.4227	–	–	–	–	–
[1], x1 = 0.55	1.4311	1.4292	1.4272	1.4253	1.4236	–	–	–	–	–
[1], x1 = 0.6	1.4316	1.4298	1.4278	1.426	1.4245	–	–	–	–	–
[1], x1 = 0.66	1.4325	1.4307	1.4288	1.427	1.4255	–	–	–	–	–
[1], x1 = 0.7	1.4331	1.4314	1.4295	1.4278	1.4262	–	–	–	–	–
[1], x1 = 0.801	1.4347	1.4331	1.4313	1.4298	1.4283	–	–	–	–	–
[1], x1 = 0.9	1.4364	1.4349	1.4332	1.4318	1.4304	–	–	–	–	–
[1], x1 = 0.95	1.4373	1.4359	1.4343	1.4329	1.4315	–	–	–	–	–
[1], x1 = 1	1.4384	1.4371	1.4356	1.4341	1.4328	–	–	–	–	–
[2], x1 = 0.105	–	–	–	–	–	10.43	9.99	9.56	9.1	8.74
[2], x1 = 0.2	–	–	–	–	–	11.24	10.8	10.32	9.91	9.5
[2], x1 = 0.301	–	–	–	–	–	12.31	11.86	11.36	10.95	10.54
[2], x1 = 0.401	–	–	–	–	–	13.6	13.15	12.62	12.19	11.76
[2], x1 = 0.45	–	–	–	–	–	14.39	13.92	13.39	12.94	12.49
[2], x1 = 0.501	–	–	–	–	–	15.23	14.73	14.21	13.75	13.27
[2], x1 = 0.55	–	–	–	–	–	16.1	15.6	15.04	14.53	14.06
[2], x1 = 0.6	–	–	–	–	–	17.05	16.52	15.93	15.42	14.92
[2], x1 = 0.66	–	–	–	–	–	18.34	17.77	17.13	16.57	16.07
[2], x1 = 0.7	–	–	–	–	–	19.31	18.77	18.02	17.46	16.91
[2], x1 = 0.801	–	–	–	–	–	21.99	21.34	20.58	20.02	19.37
[2], x1 = 0.9	–	–	–	–	–	25.05	24.33	23.43	22.79	22.1
[2], x1 = 0.95	–	–	–	–	–	26.73	25.9	25.07	24.31	23.62
[2], x1 = 1	–	–	–	–	–	28.52	27.66	26.77	25.98	25.22
